Each block holds one compound with its values, some of them ahead of it.
Legend:
normotensive dogs = test: Ocular surface hyperemia (OSH) in normotensive dogs; assay type: in vivo; settings: 0.003%
Procedure: In Vivo Data (S)-5-(3-(1-(4-hexylphenyl)-5-oxopyrrolidin-2-yl)propyl)thiophene-2-carboxylic acid 2-hydroxyethyl ester (3) was tested in normotensive dogs at 0.003%, dosing once daily for 5 days. The maximum intraocular pressure (IOP) decrease from baseline was 5.9 mmHg (36%) at 54 h; the maximum ocular surface hyperemia (OSH) score was 1.1 at 74 h. This compound was also tested in laser-induced hypertensive monkeys, using one single day dose. At 0.003%, the maximum IOP decrease from baseline was 17 mmHg (44%) at 6 h.
(S)-5-(3-(1-(4-hexylphenyl)-5-oxopyrrolidin-2-yl)propyl)thiophene-2-carboxylic acid (9) was tested in normotensive dogs at 0.003%, dosing once daily for 5 days. The maximum intraocular pressure (IOP) decrease from baseline was 4.7 mmHg (29%) at 6 h; the maximum ocular surface hyperemia (OSH) score was 1.9 at 76 h. This compound was also tested in laser-induced hypertensive monkeys, using one single day dose. At 0.003%, the maximum IOP decrease from baseline was 9 mmHg (23%) at 6 h.
(S)-5-(3-(1-(4-hexylphenyl)-5-oxopyrrolidin-2-yl)propyl)thiophene-2-carboxylic acid isopropyl ester was tested in normotensive dogs at 0.003%, dosing once daily for 4 days. The maximum intraocular pressure (IOP) decrease from baseline was 3.9 mmHg (24%) at 30 h; the maximum ocular surface hyperemia (OSH) score was 0.7 at 28 h. This compound was also tested in laser-induced hypertensive monkeys, using one single day dose. At 0.003%, the maximum IOP decrease from baseline was 12 mmHg (28%) at 6 h.

EP2 [1] = target: T1, EP2 (Homo sapiens, UniProt P43116); test: EP2 flipr; assay type: cell-based
EP2 [2] = target: T1, EP2; test: EP2 cAMP; assay type: cell-based
EP2 [3] = target: T1, EP2; test: EP2 binding (Ki)
EP4 [4] = target: T2, EP4 (Homo sapiens, UniProt P35408); test: EP4 flipr; assay type: cell-based
EP4 [5] = target: T2, EP4; test: EP4 binding (Ki)
hEP3A = target: T3, hEP3A (Homo sapiens, UniProt P43115); test: Other receptors, hEP3A; assay type: cell-based
T3 sequence (P43115 1-390): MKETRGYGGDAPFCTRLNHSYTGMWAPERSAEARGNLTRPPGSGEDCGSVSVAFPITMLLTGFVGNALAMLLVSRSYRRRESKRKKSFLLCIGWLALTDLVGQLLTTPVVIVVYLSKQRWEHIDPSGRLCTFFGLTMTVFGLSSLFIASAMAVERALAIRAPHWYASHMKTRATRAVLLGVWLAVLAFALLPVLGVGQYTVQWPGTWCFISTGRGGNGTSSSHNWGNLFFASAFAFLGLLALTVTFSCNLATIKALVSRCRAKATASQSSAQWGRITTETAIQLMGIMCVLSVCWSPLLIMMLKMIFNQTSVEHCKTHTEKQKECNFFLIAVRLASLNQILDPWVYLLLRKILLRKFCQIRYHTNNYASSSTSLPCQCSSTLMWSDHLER

hDP = target: T4, hDP (Homo sapiens, UniProt Q13258); test: Other receptors, hDP; assay type: cell-based
T4 sequence (Q13258 1-359): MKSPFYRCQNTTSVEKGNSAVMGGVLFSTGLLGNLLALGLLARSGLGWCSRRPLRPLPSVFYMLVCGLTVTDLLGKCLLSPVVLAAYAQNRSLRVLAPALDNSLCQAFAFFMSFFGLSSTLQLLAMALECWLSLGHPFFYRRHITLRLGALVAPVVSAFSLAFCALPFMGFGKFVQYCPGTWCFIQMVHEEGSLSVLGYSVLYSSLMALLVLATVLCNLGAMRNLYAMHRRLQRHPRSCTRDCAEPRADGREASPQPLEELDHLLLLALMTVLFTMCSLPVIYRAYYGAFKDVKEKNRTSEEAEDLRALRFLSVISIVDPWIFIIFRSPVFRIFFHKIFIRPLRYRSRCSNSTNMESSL

T1 sequence (P43116 whole entry): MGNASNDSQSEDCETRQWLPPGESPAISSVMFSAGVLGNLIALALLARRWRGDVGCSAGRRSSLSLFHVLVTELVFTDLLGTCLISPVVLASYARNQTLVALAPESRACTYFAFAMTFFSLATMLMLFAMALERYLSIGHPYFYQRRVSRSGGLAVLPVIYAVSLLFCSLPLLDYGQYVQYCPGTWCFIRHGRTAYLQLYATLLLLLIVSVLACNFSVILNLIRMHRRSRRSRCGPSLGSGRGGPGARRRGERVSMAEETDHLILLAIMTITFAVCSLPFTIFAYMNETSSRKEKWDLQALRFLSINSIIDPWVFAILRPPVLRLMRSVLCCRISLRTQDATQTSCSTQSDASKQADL
T2 sequence (P35408 whole entry): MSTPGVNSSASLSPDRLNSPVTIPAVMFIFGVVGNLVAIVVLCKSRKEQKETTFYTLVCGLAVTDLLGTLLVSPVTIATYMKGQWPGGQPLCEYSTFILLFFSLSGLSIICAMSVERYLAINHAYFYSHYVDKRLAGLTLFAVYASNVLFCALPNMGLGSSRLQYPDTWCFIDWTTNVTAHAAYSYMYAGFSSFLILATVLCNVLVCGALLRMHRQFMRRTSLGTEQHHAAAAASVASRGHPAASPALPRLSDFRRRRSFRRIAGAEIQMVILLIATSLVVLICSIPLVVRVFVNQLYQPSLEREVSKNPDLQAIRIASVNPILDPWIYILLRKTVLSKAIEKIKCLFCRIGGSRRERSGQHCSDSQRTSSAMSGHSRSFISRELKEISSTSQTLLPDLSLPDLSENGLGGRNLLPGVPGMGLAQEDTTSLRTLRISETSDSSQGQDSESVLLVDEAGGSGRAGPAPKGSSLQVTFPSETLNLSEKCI

maximum ocular surface hyperemia (OSH) score (normotensive dogs; once daily for 4 days, at 28 h): 0.7
Compound: CCCCCCc1ccc(N2C(=O)CC[C@@H]2CCCc2ccc(C(=O)OC(C)C)s2)cc1 [(S)-5-(3-(1-(4-hexylphenyl)-5-oxopyrrolidin-2-yl)propyl)thiophene-2-carboxylic acid isopropyl ester]

maximum ocular surface hyperemia (OSH) score (normotensive dogs; once daily for 5 days, at 74 h): 1.1
Compound: CCCCCCc1ccc(N2C(=O)CC[C@@H]2CCCc2ccc(C(=O)OCCO)s2)cc1 [Compound 3, (S)-5-(3-(1-(4-hexylphenyl)-5-oxopyrrolidin-2-yl)propyl)thiophene-2-carboxylic acid 2-hydroxyethyl ester]

maximum ocular surface hyperemia (OSH) score (normotensive dogs; once daily for 5 days, at 76 h): 1.9
EC50 (EP2 [1]): 5 nM
EC50 (EP2 [2]): 0.5 nM
Ki (EP2 [3]): 3 nM
EC50 (EP4 [4]): 11300 nM
Ki (EP4 [5]): 2610 nM
EC50 (hEP3A): 1550 nM
EC50 (hDP): 389 nM
Compound: CCCCCCc1ccc(N2C(=O)CC[C@@H]2CCCc2ccc(C(=O)O)s2)cc1 [Compound 9, (S)-5-(3-(1-(4-hexylphenyl)-5-oxopyrrolidin-2-yl)propyl)thiophene-2-carboxylic acid]

— patent US8377984B2, “Substituted gamma lactams as therapeutic agents” (Allergan, Inc., priority 2008, dated 2013)
